Source: ChEMBL document CHEMBL3638794, “Indazole compounds useful as ketohexokinase inhibitors” (2014)

Target: T1, Ketohexokinase (Homo sapiens, UniProt P50053)
T1 sequence (P50053 whole entry): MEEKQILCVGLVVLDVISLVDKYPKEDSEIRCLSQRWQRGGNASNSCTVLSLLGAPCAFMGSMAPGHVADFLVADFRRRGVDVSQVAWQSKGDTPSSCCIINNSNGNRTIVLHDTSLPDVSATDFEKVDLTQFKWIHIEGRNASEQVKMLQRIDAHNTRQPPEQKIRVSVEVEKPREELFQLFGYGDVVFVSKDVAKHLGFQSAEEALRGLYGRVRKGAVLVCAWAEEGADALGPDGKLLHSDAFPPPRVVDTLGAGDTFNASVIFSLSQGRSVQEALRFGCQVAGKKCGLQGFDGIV
Assay: Enzyme Assay: An enzymatic assay was developed to measure KHK-mediated conversion of D-fructose to Fructose-1-P (F-1-P) using High Throughput Mass Spectroscopy (HTMS) as a means of product detection. […] The assay was carried out in 384-well plate format.

An IC50 of 2050 nM was found for `CSc1nn(-c2ccc(Br)cc2)c2cc(OC3CCNCC3)ccc12` in this work.
